{"source": "a melting point compilation (Tetko et al.; mined from patent text by program, amines drawn as free bases though some values may be those of a salt)"}
{"units": {"melting point": "°C"}}
{"compound": "c1ccc2c(c1)C[C@H]1CSC(=Nc3cc[nH]n3)N1C2", "melting point": 161}
{"compound": "COc1ccc(CBr)cc1[N+](=O)[O-]", "melting point": "110 to 112"}
{"compound": "CN(C)c1ccc(-c2nc(Cl)c(CC(N)=O)n2Cc2ccccc2)cc1", "melting point": "215 to 216"}
{"compound": "CN(C)C1(c2ccccn2)CCC(NCCc2c[nH]c3ccccc23)CC1", "note": "(stereo not given)", "melting point": "150 to 152"}
{"compound": "Brc1ccc2c(c1)N=C(NCc1cccnc1)c1ccccc1N2", "melting point": "152 to 155"}
{"compound": "Fc1ccc(-c2ncn(C3CCNCC3)c2-c2ccnc(Oc3ccc(-c4ccccc4)cc3)n2)cc1", "melting point": "192 to 193"}
{"compound": "S=C1NC(c2ccc(Cl)cc2)c2ccccc2C1CCN1CCOCC1", "note": "(stereo not given)", "melting point": "228 to 231"}
{"compound": "Cc1ccccc1C1CC(=O)CC(c2ccccc2C)N1C", "note": "(stereo not given)", "melting point": "155 to 157"}
{"compound": "COc1cc2cc(C(=O)O)c(C(=O)O)nc2cc1OC", "melting point": "264 to 266"}
{"compound": "CCCCN(c1cccc(-c2ccnc3c([N+](=O)[O-])cnn23)c1)S(C)(=O)=O", "melting point": "153 to 155"}
{"compound": "CC(C)c1cc(Oc2c(Cl)cc(C(F)(F)F)cc2Cl)n[nH]1", "melting point": "98 to 101"}
{"compound": "CC(C)=NNc1ccnc2c(NC(=O)c3c(Cl)cccc3Cl)cc(C)cc12", "melting point": "242 to 245"}
{"compound": "COc1ccc2c(c1)C(C(=O)O)c1cccnc1CO2", "note": "(stereo not given)", "melting point": "140 to 141"}
{"compound": "N=C(N)Nc1ncc(Cl)c2ccc(S(=O)(=O)N(CCOC3CCCCO3)C3(C(=O)O)CCCC3)cc12", "note": "(stereo not given)", "melting point": "281 to 289"}
{"compound": "CCNc1nc(N)nc2c1ncn2C1C=CC(CO)C1", "note": "(stereo not given)", "melting point": "171 to 173"}
{"compound": "CC(=O)c1cc2cc(OCCNC[C@H](O)COc3ccccc3)ccc2o1", "melting point": "122 to 123"}
{"compound": "CCC(=C(c1ccc(O)cc1)c1ccc(O)cc1)c1ccc(OCC(=O)O)c(OC)c1", "melting point": "253 to 254"}
{"compound": "CCC(Cc1c(I)cc(I)c(NC(=O)CNCCNCCN)c1I)C(=O)O", "note": "(stereo not given)", "melting point": 185}
{"compound": "O=C(O)C1Cc2ccccc2CN1C(=O)c1ccc(F)c(F)c1", "note": "(stereo not given)", "melting point": "89 to 91"}
{"compound": "CCOC(=O)Cc1ccc(NC(=O)Nc2ccccc2OC)cc1", "melting point": "107 to 109"}
{"compound": "COc1ccc(S(=O)(=O)c2ncoc2C(C)C)cc1", "melting point": "98 to 100"}
{"compound": "COC(=O)c1c(-c2cc(OC)c(OC)c(OC)c2)c2cc(OC)c(OCc3cccs3)cc2c(=O)n1-c1ccc(N)cc1", "melting point": "205 to 206"}
{"compound": "c1cc2[nH]ncc2cc1NC1CC2CCC(C1)N2", "note": "(stereo not given)", "melting point": "236 to 238"}
{"compound": "CCCC(=O)OC1=C(c2ccc(OC)cc2)S(=O)c2ccccc2-n2cccc21", "note": "(stereo not given)", "melting point": "113 to 115"}
{"compound": "CCOC(=O)CCC(=O)c1cccc(C(=O)c2ccc(Cl)cc2)c1N", "melting point": "112 to 115"}
{"compound": "N#Cc1cnc2cc(-c3cc(CN4CCOCC4)c(CN4CCOCC4)s3)ccc2c1Nc1ccc(Cl)cc1Cl", "melting point": "118 to 125"}
{"compound": "CCN(CC)C1CCN(c2cccc(-c3cnn4c(N)c(-c5ccc(F)cc5)c(C)nc34)c2)CC1", "melting point": "208 to 210"}
{"compound": "NC1=NC2(CN(C(=O)c3cccs3)C2)Nc2cccc(F)c21", "melting point": "214 to 215"}
{"compound": "O=C(O)c1ccc2ccccn2c1=O", "melting point": "235 to 240"}
{"compound": "CCCN1C(=O)C(NC(=O)Nc2cccc(C)c2)N=C(N(C)C2CCCCC2)c2ccccc21", "note": "(single isomer, unassigned; (+))", "melting point": "126 to 127"}
{"compound": "Cc1[nH]c(=O)[nH]c1C(N)=O", "melting point": "> 300"}
{"compound": "c1ccc(C(Sc2nc3ccccc3[nH]2)(c2ccccc2)c2ccccc2)cc1", "melting point": 256}
{"compound": "O=C(Cn1ccnc1)c1ccc(F)cc1F", "melting point": 125}
{"compound": "CC1CCCCN1C(=O)C=Cc1ccc(F)cc1", "note": "(stereo not given)", "melting point": "114 to 116"}
{"compound": "CCOc1ccc2[nH]c(=O)n(C3CCCC3)c2c1", "melting point": 75}
{"compound": "O=C1CC2(C(=O)N1)C(=O)N(Cc1ccc(Cl)c(Cl)c1)c1ccccc12", "note": "(stereo not given)", "melting point": "205 to 207"}
{"compound": "Cc1ccc(CCC(=O)c2ccc(N3CCN(c4ccncc4)CC3)cc2)cc1", "melting point": "130 to 132"}
{"compound": "C=CCc1cc(C(=O)c2ccnn2C)c(Cl)c(Cl)c1O", "melting point": "141 to 143"}
{"compound": "Cc1ccc(S(=O)(=O)NC(=O)N2C(=O)C(c3ccccc3)N2C(c2ccccc2)c2ccccc2)cc1", "note": "(stereo not given)", "melting point": "154 to 156"}
{"compound": "c1ccc(CCc2cc3cccnc3[nH]2)cc1", "melting point": "157 to 158"}
{"compound": "COCCOC(=O)C1=C(C)NC(C)=C(c2nnco2)C1c1cccc(Cl)c1Cl", "note": "(stereo not given)", "melting point": "190 to 192"}
{"compound": "CCNC(C)CN1CCc2c(c(=O)oc3c(OC)c(OC)ccc23)C1", "note": "(stereo not given)", "melting point": "125 to 127"}
{"compound": "C[C@@H](NC(=O)C1(C)CC1)c1ccc2ccccc2c1", "melting point": 91}
{"compound": "Cc1cc2oc(S(=O)(=O)N=CN(C)C)cc2cn1", "melting point": "175 to 177"}
{"compound": "COC(=O)c1cccc(-c2nc(COc3ccc(COc4nn(-c5ccccc5)cc4/C=C/c4nc(N5CCOCC5)sc4C)cc3OC)c(C)o2)c1", "melting point": "183 to 184"}
{"compound": "CCOC(=O)Cc1csc(NC(=O)NC)n1", "melting point": "158 to 159"}
{"compound": "CN(C[C@H](O)[C@@H](O)[C@H](O)[C@H](O)CO)C(=O)CCCO", "melting point": "78 to 79"}
{"compound": "O=[N+]([O-])c1ccc2c(c1)OC(COc1nccnc1N1CCNCC1)CO2", "note": "(stereo not given)", "melting point": "133 to 135"}
{"compound": "CNC(=O)NC1(C)CCCc2ccccc21", "note": "(stereo not given)", "melting point": "183 to 186"}
{"compound": "Cc1nc2cc3c(nc2o1)C(=O)OC3=O", "melting point": "194 to 196"}
{"compound": "O=C(Nc1ccc(-n2nccn2)c(F)c1)OCc1ccccc1", "melting point": "99.5 to 101"}
{"compound": "Cc1cccn2c(C)c(-c3ccc4c(c3)NC(=O)C(C)O4)nc12", "note": "(stereo not given)", "melting point": "249 to 250"}
{"compound": "N#Cc1ccc(SCc2ccccc2)cc1", "melting point": 85}
{"compound": "CCOC(=O)c1[nH]c(I)c(C)c1CC", "melting point": "122 to 124"}
{"compound": "CCOC(=O)c1cc2c3cc(Br)ccc3ncn2c1", "melting point": "183 to 185"}
{"compound": "COC(=O)N(COc1ccc(Cl)cc1Cl)c1ccc(Cl)cc1", "melting point": "70 to 80"}
{"compound": "NC(=Nc1cccc(CNCCC(=O)Nc2ccc3c(c2)CCN3Cc2cccc3ccccc23)c1)c1cccs1", "melting point": "185 to 187"}
{"compound": "COc1ccc(CN2CCC(c3cn(Cc4ccc(Cl)s4)c4cc(F)ccc34)CC2)cc1C(=O)O", "melting point": "232 to 236"}
{"compound": "COC(=O)C[C@H](NC(c1ccccc1)(c1ccccc1)c1ccccc1)C(=O)C(=[N+]=[N-])C(=O)N(C)OC", "melting point": "130 to 131"}
{"compound": "CCCCc1oc2ccccc2c1C(=O)NCC(=O)c1ccc2cc(OC)ccc2c1", "melting point": "129 to 131"}
{"compound": "CCN(CC)C(=O)Nc1ccc(NCc2ccccc2Cl)cc1N", "melting point": "153 to 155"}
{"compound": "C=CC12COc3cc(Cl)ccc3C1=NN(C(=O)Nc1ccc(C(F)(F)F)cc1)C2", "note": "(stereo not given)", "melting point": "157 to 161"}
{"compound": "COc1ccc(NN=C(Sc2ccccc2)C(C)=O)cc1", "melting point": "120 to 123"}
{"compound": "COC(=O)c1ccccc1S(=O)(=O)NC(=O)n1nc(OCC(F)(F)F)n(C)c1=O", "melting point": 153}
{"compound": "CC12CCCc3cc(Nc4ncc(C(=O)O)cn4)cc(c31)CCC2", "melting point": "> 300"}
{"compound": "COc1cc(COc2nc(-c3ccccc3)ncc2CO)ccc1OCc1nc(-c2ccco2)oc1C", "melting point": "150 to 151"}
{"compound": "Cc1cc(CO)cc(Oc2nc(Cl)nc(Cl)c2C(C)C)c1", "melting point": "140 to 141"}
{"compound": "Cc1ccccc1OCC(=O)Nc1ccc(C(=O)N2CCCCc3ccccc32)cc1", "melting point": "172 to 175"}
{"compound": "CC(C)NC(C)CC1=C2c3ccc(O)cc3CCC2CCNC1=O", "note": "(stereo not given)", "melting point": "202 to 204"}
{"compound": "Clc1ccc(Cl)c(-c2csc(NC3=NCCCN3)n2)c1", "melting point": "188 to 189"}
{"compound": "O=C(CCc1ccc(NC(=O)C(F)(F)F)c([N+](=O)[O-])c1)N1CCCCC1", "melting point": "102 to 103"}
{"compound": "CCOC(=O)c1ccc(NCCOc2ccc(Cl)cc2Cl)cc1", "melting point": "111 to 113"}
{"compound": "CC(=O)Nc1cccc(C#Cc2c(F)c(F)nc(F)c2F)c1", "melting point": "215 to 216"}
{"compound": "Fc1ccc(-c2ncn(C3CCNCC3)c2-c2ccnc(Oc3cccc(C(F)(F)F)c3)n2)cc1", "melting point": "137 to 138"}
{"compound": "CC1(C(=O)O)OC2CCCCC2NC1=O", "note": "(stereo not given)", "melting point": "142 to 144"}
{"compound": "CNC(=S)N1Cc2ccccc2C2(Cc3ccccc3O2)C1", "note": "(stereo not given)", "melting point": 165}
{"compound": "CCCCCCCCCCc1ccc(CNc2ccc(C(=O)OCC)cc2)cc1", "melting point": "87 to 90"}
{"compound": "CNC(=O)c1ccc(N2CCN(Cc3cnc4c(c3)[nH]c(=O)n3cccc43)CC2)c(C)c1", "melting point": "264 to 266"}
{"compound": "CC(=O)Oc1cccc2c(-c3cccs3)c3cccc(OC(C)=O)c3c(OC(C)=O)c12", "melting point": 260}
{"compound": "CC(=NNc1ccc([N+](=O)[O-])cc1)N1CCOCC1", "melting point": 176}
{"compound": "C/C=C(/C)c1ccc2c(c1)C(=O)N(c1ccc3c(ccn3C)c1)C2", "melting point": "144 to 145"}
{"compound": "CCn1cc(Br)nc(S(=O)(=O)Cc2ccc(Cl)cc2)c1=O", "melting point": "145 to 147"}
{"compound": "CCOC(Cc1ccccc1)=C1SC(=S)N(c2ccccc2)C1=O", "melting point": "119 to 121"}
{"compound": "COc1cc2c3ccc(OC)c(OC)c3n(S(C)(=O)=O)c2cc1OC", "melting point": "164 to 165"}
{"compound": "COc1cc2[nH]cc(-c3cc4cc(F)cnc4n3S(=O)(=O)c3ccc(C)cc3)c2cc1OC", "melting point": 218}
{"compound": "CCSc1cnc(Oc2ccc(Cl)c(Cl)c2)c(C#N)c1", "melting point": "114 to 115"}
{"compound": "COC1=NC(c2cccc([N+](=O)[O-])c2)C(C(=O)OC(C)C)=C(C)N1", "note": "(stereo not given)", "melting point": "130 to 132"}
{"compound": "O=C(NCc1ccc(Cl)cc1)c1cn2c3c(cc(CN4CCOCC4)cc3c1=O)OC(c1ccco1)C2", "note": "(stereo not given)", "melting point": "220 to 222"}
{"compound": "COc1ccc(Cl)cc1C(=O)CCCCCl", "melting point": "52 to 54"}
{"compound": "CCN(C(C)=O)c1cccc(-c2ccnc3c(C(=O)c4ccccc4)cnn23)c1", "melting point": "158 to 160"}
{"compound": "Cc1ccc(NC2CCOC2=O)c(C(=O)O)c1", "note": "(stereo not given)", "melting point": "199 to 200"}
{"compound": "O=C(CCCl)c1ccc2c(c1)Cc1cc(C(=O)CCCl)ccc1S2", "melting point": "105 to 107"}
{"compound": "C=C(C)c1ccccc1S(N)(=O)=O", "melting point": "76 to 85"}
{"compound": "c1cnc2ccc(Cn3nnc4ccc(-c5cn[nH]c5)nc43)cc2c1", "melting point": "215 to 218"}
{"compound": "Cn1ncnc1COc1nn2c(-c3ccccc3F)nnc2cc1C1(F)CCC1", "melting point": "154 to 162"}
{"compound": "COC(=N)N1CCC(c2nn(C)c3cc(F)ccc23)CC1", "melting point": "132 to 135"}
{"compound": "COC(=O)C1=NC2=COc3cc(C)ccc3N2C1C(=O)O", "note": "(stereo not given)", "melting point": "176 to 177"}
{"compound": "CCOC(=O)C1=CC2=C(C)C(C)(OC)C=C(C)C2=N1", "note": "(stereo not given)", "melting point": "182 to 183"}
{"compound": "CC(C)C=CC1(C(F)(F)F)OCC(=O)Nc2ccc(Cl)cc21", "note": "(stereo not given)", "melting point": "148 to 149"}
{"compound": "COc1ccccc1-n1c(-c2ccc(N(C)C)cc2)nnc1C(C)O", "note": "(stereo not given)", "melting point": 145}
